Experiments:
[1] = target: T1, SHP-2 enzyme (Met1-Leu525), SHP2wt (Homo sapiens, UniProt Q06124); assay: SHP2 inhibition enzymatic assay; format: biochemical; conditions: 0.5 nM SHP-2 activated by 500 nM IRS1 peptide, 75 μM DiFMUP substrate
T1 construct: synthetized by Origene, Met1-Leu525, cat #TP750155; purchased Origene TP750155
T1 sequence (Q06124 1-525): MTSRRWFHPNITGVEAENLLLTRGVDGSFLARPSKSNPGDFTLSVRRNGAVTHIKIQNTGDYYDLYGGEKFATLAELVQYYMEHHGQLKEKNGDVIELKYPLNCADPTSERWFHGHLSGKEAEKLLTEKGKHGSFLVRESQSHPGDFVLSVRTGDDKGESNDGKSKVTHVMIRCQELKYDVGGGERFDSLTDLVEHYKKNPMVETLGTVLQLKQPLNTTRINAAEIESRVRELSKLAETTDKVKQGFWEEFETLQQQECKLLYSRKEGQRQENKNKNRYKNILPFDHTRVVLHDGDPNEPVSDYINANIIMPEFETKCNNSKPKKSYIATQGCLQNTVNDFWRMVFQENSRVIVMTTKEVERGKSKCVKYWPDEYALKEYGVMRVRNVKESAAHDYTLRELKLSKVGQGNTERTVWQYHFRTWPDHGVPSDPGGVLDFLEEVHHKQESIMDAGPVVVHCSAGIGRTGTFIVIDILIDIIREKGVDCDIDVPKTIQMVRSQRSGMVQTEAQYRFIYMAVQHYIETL
Protocol: The assay was performed as described in YP Chen et al, Nature (535) 2016. Assay volume of 20 μL/well was assembled in 384 well black polystyrene low-binding microplates (Greiner), using the following buffer: 60 mM HEPES pH 7.2, 75 mM NaCl, 75 mM KCl, 1 mM EDTA pH 8, 0.05% tween-20, 5 mM DTT. The SHP-2 enzyme (synthetized by Origene, Met1-Leu525, cat #TP750155) was used at a final concentration of 0.5 nM. The enzyme was activated by 500 nM IRS1 peptide (sequence: H2N-LN(pY)IDLDLV(dPEG8)LST(pY)ASINFQK-amide; Wang et al., iScience 25,104009, Apr. 15, 2022, https://doi.org/10.1016/j.isci.2022.104009) and incubated with 75 μM DiFMUP (Sigma) as substrate.
Briefly, DMSO serially diluted testing compounds were transferred to the bottom of the assay plate. SHP2 was then added together with the IRS1 peptide 30 min post incubation, the DiFMUP substrate was added to the reaction and incubated 30 min at rt. Finally 5 μL of 160 μM bpV (potassium bisperoxo[1,10-phenanthroline]oxovanadate [V], Sigma) were added to stop and quench the reaction. The fluorescence was detected by a microplate reader (Envision, PerkinElmer) according to the DiFMUP excitation and emission wavelength. The lower the fluorescence the higher the SHP2 inhibition.
The activity of each compound dilution was calculated as percentage of inhibition between vehicle (DMSO, 0% inhibition) and no enzyme (100% inhibition). The percentage inhibition is fitted against the compound dilutions with a four-parameter logistic regression. The inflection point (i.e. the concentration at which half-maximal inhibition is achieved) is the IC50.
Legend: A indicates IC50 less or equal to 0.05 μM; B indicates IC50 greater than 0.05 μM and lower or equal to 0.3 μM.

[2] = system: phospho-ERK1/2 (Thr202/Tyr204); assay: Phospho-ERK cellular assay; format: cell-based; conditions: Homo sapiens; KYSE-520 cells, 2 h at 37° C, TR-FRET; read-out: pERK IC50
Protocol: ERK phosphorylation was detected using the “Advanced phospho-ERK1/2 (Thr202/Tyr204)” TR-FRET kit (Cisbio, Cat #64AERPEG/H), following the manufacturer reagents and instructions.
Briefly, 20.000/well KYSE-520 cells (DSMZ ACC 371) were plated in 6 μL RPMI-1640 (Invitrogen) growth medium, into 384 white low-volume high base TC microplates (Greiner). After an overnight incubation, cells were treated with DMSO serial diluted compounds and incubated for 2 h at 37° C. After incubation, 2 μL/well of 4×Lysis Buffer (Cisbio 64KL1FDF), were added and incubated with cells for 30 min on gentle shaking. Finally, lysates were added with 2 μL/well of Eu cryptate (donor) and D2 (acceptor) conjugated antibodies (as provided by the Cisbio kit #64AERPEG/H) diluted 1:100 in Detection Buffer (as provided by the Cisbio kit #64AERPEG/H). Plates were then sealed and incubated at rt in the dark. After an overnight incubation, the TR-FRET signal was detected on a suitable reader (Envision, PerkinElmer).
The lower the TR-FRET signal the higher the higher the SHP2 inhibition in cells.
The activity of each compound dilution was calculated as percentage between vehicle DMSO treated cells and no cells, 0% inhibition and 100% inhibition respectively. The percentage activity is fitted against the compound dilutions with a four-parameter logistic regression. The inflection point (i.e. the concentration at which half-maximal inhibition is achieved) is the IC50.
Legend: “+” indicates IC50 equal or higher than 0.5 μM; “++” indicates IC50 less than 0.5 μM and higher or equal to 0.1 μM; “+++” indicates IC50 less than 0.1 μM.

SMILES | IC50 [1] | IC50 [2]
Cn1c(N2CCC3(CC2)Cn2nccc2[C@H]3N)ncc(-c2cccc(F)c2F)c1=O [Example 5, (S)-2-(4′-amino-4′H,6′H-spiro[piperidine-4,5′-pyrrolo[1,2-b]pyrazol]-1-yl)-5-(2,3-difluorophenyl)-3-methylpyrimidin-4(3H)-one] | 50 to 300 nM | > 500 nM
Cn1c(N2CCC3(CC2)Cn2nccc2[C@H]3N)ccc(-c2cccc(Cl)c2Cl)c1=O [Example 11, (S)-6-(4′-amino-4′H,6′H-spiro[piperidine-4,5′-pyrrolo[1,2-b]pyrazol]-1-yl)-3-(2,3-dichlorophenyl)-1-methylpyridin-2(1H)-one] | 50 to 300 nM | > 500 nM
N[C@@H]1c2ccnn2CC12CCN(c1nccn3c(-c4cccc(F)c4Cl)ncc13)CC2 [Example 14, (S)-1-(3-(2-chloro-3-fluorophenyl)imidazo[1,5-a]pyrazin-8-yl)-4′H,6′H-spiro[piperidine-4,5′-pyrrolo[1,2-b]pyrazol]-4′-amine] | ≤ 50 nM | 100 to 500 nM
Cc1c(Cl)cccc1-c1ncc2c(N3CCC4(CC3)Cn3nccc3[C@H]4N)nccn12 [Example 15, (S)-1-(3-(3-chloro-2-methylphenyl)imidazo[1,5-a]pyrazin-8-yl)-4′H,6′H-spiro[piperidine-4,5′-pyrrolo[1,2-b]pyrazol]-4′-amine] | ≤ 50 nM | > 500 nM
Cc1ccc(F)c(-c2ncc3c(N4CCC5(CC4)Cn4nccc4[C@H]5N)nccn23)c1Cl [Example 16, (S)-1-(3-(2-chloro-6-fluoro-3-methylphenyl)imidazo[1,5-a]pyrazin-8-yl)-4′H,6′H-spiro[piperidine-4,5′-pyrrolo[1,2-b]pyrazol]-4′-amine] | 50 to 300 nM | > 500 nM
Cc1nc(Sc2cccc(Cl)c2Cl)cnc1N1CCC2(CC1)Cn1nccc1[C@H]2N [Example 17, (S)-1-(5-((2,3-dichlorophenyl)thio)-3-methylpyrazin-2-yl)-4′H,6′H-spiro[piperidine-4,5′-pyrrolo[1,2-b]pyrazol]-4′-amine] | ≤ 50 nM | 100 to 500 nM
N[C@@H]1c2ccnn2CC12CCN(c1cnc(Sc3ccc(OC(F)(F)F)cc3)cn1)CC2 [Example 18, (S)-1-(5-((4-(trifluoromethoxy)phenyl)thio)pyrazin-2-yl)-4′H,6′H-spiro[piperidine-4,5′-pyrrolo[1,2-b]pyrazol]-4′-amine] | ≤ 50 nM | 100 to 500 nM
N[C@@H]1c2ccnn2CC12CCN(c1cnc(Sc3ccc(C(F)(F)F)cc3)cn1)CC2 [Example 19, (S)-1-(5-((4-(trifluoromethyl)phenyl)thio)pyrazin-2-yl)-4′H,6′H-spiro[piperidine-4,5′-pyrrolo[1,2-b]pyrazol]-4′-amine] | ≤ 50 nM | 100 to 500 nM
N[C@@H]1c2ccnn2CC12CCN(c1cnc(Sc3cccc(Cl)c3)cn1)CC2 [Example 20, (S)-1-(5-((3-chlorophenyl)thio)pyrazin-2-yl)-4′H,6′H-spiro[piperidine-4,5′-pyrrolo[1,2-b]pyrazol]-4′-amine] | ≤ 50 nM | < 100 nM
N[C@@H]1c2ccnn2CC12CCN(c1cnc(Sc3ccc(Cl)cc3Cl)cn1)CC2 [Example 22, (S)-1-(5-((2,4-dichlorophenyl)thio)pyrazin-2-yl)-4′H,6′H-spiro[piperidine-4,5′-pyrrolo[1,2-b]pyrazol]-4′-amine] | ≤ 50 nM | < 100 nM
N[C@@H]1c2ccnn2CC12CCN(c1cnc(Sc3ccc(Cl)c(Cl)c3)cn1)CC2 [Example 23, (S)-1-(5-((3,4-dichlorophenyl)thio)pyrazin-2-yl)-4′H,6′H-spiro[piperidine-4,5′-pyrrolo[1,2-b]pyrazol]-4′-amine] | ≤ 50 nM | 100 to 500 nM
N[C@@H]1c2ccnn2CC12CCN(c1cnc(Sc3ccccc3)cn1)CC2 [Example 24, (S)-1-(5-(phenylthio)pyrazin-2-yl)-4′H,6′H-spiro[piperidine-4,5′-pyrrolo[1,2-b]pyrazol]-4′-amine] | ≤ 50 nM | < 100 nM

Other lines, results leading:

IC50 [1] | IC50 [2] | SMILES
≤ 50 nM | 100 to 500 nM | Cc1nc(N2CCC3(CC2)Cn2ncc(F)c2[C@H]3N)cc(=O)n1-c1cccc(Cl)c1Cl (atropisomer, axis not shown) [Example 1, (S)-6-(4′-amino-3′-fluoro-4′H,6′H-spiro[piperidine-4,5′-pyrrolo[1,2-b]pyrazol]-1-yl)-3-(2,3-dichlorophenyl)-2-methylpyrimidin-4(3H)-one]
≤ 50 nM | 100 to 500 nM | Cc1nc(N2CCC3(CC2)Cn2nccc2[C@H]3N)cnc1Sc1ccnc(C)c1F [Example 4, (S)-1-(5-((3-fluoro-2-methylpyridin-4-yl)thio)-6-methylpyrazin-2-yl)-4′H,6′H-spiro[piperidine-4,5′-pyrrolo[1,2-b]pyrazol]-4′-amine]
≤ 50 nM | 100 to 500 nM | Cc1nc(N2CCC3(CC2)Cn2nccc2[C@H]3N)cnc1Sc1cccc(Cl)c1Cl [Example 6, (S)-1-(5-((2,3-dichlorophenyl)thio)-6-methylpyrazin-2-yl)-4′H,6′H-spiro[piperidine-4,5′-pyrrolo[1,2-b]pyrazol]-4′-amine]
≤ 50 nM | < 100 nM | N[C@@H]1c2ccnn2CC12CCN(c1cnc(Oc3ccc(F)cc3)cn1)CC2 [Example 7, (S)-1-(5-(4-fluorophenoxy)pyrazin-2-yl)-4′H,6′H-spiro[piperidine-4,5′-pyrrolo[1,2-b]pyrazol]-4′-amine]
≤ 50 nM | > 500 nM | N[C@@H]1c2ccnn2CC12CCN(c1cnc3nc(-c4cccc(F)c4F)ccc3n1)CC2 [Example 8, (S)-1-(6-(2,3-difluorophenyl)pyrido[2,3-b]pyrazin-2-yl)-4′H,6′H-spiro[piperidine-4,5′-pyrrolo[1,2-b]pyrazol]-4′-amine]
≤ 50 nM | > 500 nM | N[C@@H]1c2ccnn2CC12CCN(c1cnc3nc(-c4cccc(Cl)c4Cl)ccc3n1)CC2 [Example 9, (S)-1-(6-(2,3-dichlorophenyl)pyrido[2,3-b]pyrazin-2-yl)-4′H,6′H-spiro[piperidine-4,5′-pyrrolo[1,2-b]pyrazol]-4′-amine]
≤ 50 nM | 100 to 500 nM | Cc1cccc(-c2ncc3c(N4CCC5(CC4)Cn4nccc4[C@H]5N)nccn23)c1F [Example 12, (S)-1-(3-(2-fluoro-3-methylphenyl)imidazo[1,5-a]pyrazin-8-yl)-4′H,6′H-spiro[piperidine-4,5′-pyrrolo[1,2-b]pyrazol]-4′-amine]
≤ 50 nM | < 100 nM | N[C@@H]1c2ccnn2CC12CCN(c1cnc(Sc3ccc(F)cc3)cn1)CC2 [Example 13, (S)-1-(5-((4-fluorophenyl)thio)pyrazin-2-yl)-4′H,6′H-spiro[piperidine-4,5′-pyrrolo[1,2-b]pyrazol]-4′-amine]

— patent US20260109699A1, “AZOLE DERIVATIVES AS SHP2 INHIBITORS” (IRBM S.P.A., priority 2022, published 2026)
